# In ChEMBL document CHEMBL5634165, “Design, synthesis and activity evaluation of quinolinone derivatives as EZH2 inhibitors” (Bioorg Med Chem Lett, 2024):
# The source made the active and inactive calls. No cut-off for these calls is given here.
# Target: T1, Histone-lysine N-methyltransferase EZH2 (Homo sapiens, UniProt Q15910)
# Assay: Inhibition of EZH2 (unknown origin)
# Details: not given
# Target sequence in this assay (Q15910 whole entry): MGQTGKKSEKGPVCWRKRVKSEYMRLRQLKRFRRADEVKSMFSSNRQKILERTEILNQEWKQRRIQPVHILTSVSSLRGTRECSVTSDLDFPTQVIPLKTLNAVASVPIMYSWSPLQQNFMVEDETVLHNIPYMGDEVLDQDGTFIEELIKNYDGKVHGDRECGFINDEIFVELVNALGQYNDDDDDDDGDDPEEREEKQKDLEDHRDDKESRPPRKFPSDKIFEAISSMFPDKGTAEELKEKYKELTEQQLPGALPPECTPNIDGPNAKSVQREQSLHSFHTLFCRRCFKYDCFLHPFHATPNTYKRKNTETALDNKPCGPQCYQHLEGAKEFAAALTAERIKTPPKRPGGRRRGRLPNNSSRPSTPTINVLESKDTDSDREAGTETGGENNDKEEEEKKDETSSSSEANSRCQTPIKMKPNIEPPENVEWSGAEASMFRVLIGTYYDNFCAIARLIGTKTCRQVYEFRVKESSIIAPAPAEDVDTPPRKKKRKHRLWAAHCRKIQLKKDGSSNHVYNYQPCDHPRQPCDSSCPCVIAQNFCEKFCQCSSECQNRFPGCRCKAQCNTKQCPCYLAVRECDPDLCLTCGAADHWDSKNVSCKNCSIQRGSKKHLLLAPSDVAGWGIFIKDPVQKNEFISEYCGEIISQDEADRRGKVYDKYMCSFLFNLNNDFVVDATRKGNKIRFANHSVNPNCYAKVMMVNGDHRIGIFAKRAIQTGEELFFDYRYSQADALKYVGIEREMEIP
row,SMILES,IC50 [µM]
1,Cc1cc(C)c(CNC(=O)c2cc(-c3ccc4ncccc4c3)cc3[nH]c(=O)ccc23)c(=O)[nH]1,0.00823
2,Cc1cc(C)c(CNC(=O)c2cc(-c3ccc(Br)cc3)cc3[nH]c(=O)ccc23)c(=O)[nH]1,0.00101
3,Cc1cc(C)c(CNC(=O)c2cc(-c3ccc(Oc4ccccc4)cc3)cc3[nH]c(=O)ccc23)c(=O)[nH]1,0.00821
4,COc1cc(-c2cc(C(=O)NCc3c(C)cc(C)[nH]c3=O)c3ccc(=O)[nH]c3c2)ccc1F,0.00094
5,COc1ccc2cc(-c3cc(C(=O)NCc4c(C)cc(C)[nH]c4=O)c4ccc(=O)[nH]c4c3)ccc2c1,0.00663
6,Cc1ccc(-c2cc(C(=O)NCc3c(C)cc(C)[nH]c3=O)c3ccc(=O)[nH]c3c2)cc1,0.00274
7,Cc1cc(C)c(CNC(=O)c2cc(-c3ccccc3)cc3[nH]c(=O)ccc23)c(=O)[nH]1,0.00627

# Test system: A549
# Assay: cells
# Details: Homo sapiens
# Description: Antiproliferative activity against human A549 cells by MTT assay
row,SMILES,IC50 [µM]
1,Cc1cc(C)c(CNC(=O)c2cc(-c3ccc4ncccc4c3)cc3[nH]c(=O)ccc23)c(=O)[nH]1,> 50
2,Cc1cc(C)c(CNC(=O)c2cc(-c3ccc(Br)cc3)cc3[nH]c(=O)ccc23)c(=O)[nH]1,11
3,Cc1cc(C)c(CNC(=O)c2cc(-c3ccc(Oc4ccccc4)cc3)cc3[nH]c(=O)ccc23)c(=O)[nH]1,> 50
4,COc1cc(-c2cc(C(=O)NCc3c(C)cc(C)[nH]c3=O)c3ccc(=O)[nH]c3c2)ccc1F,12.3
5,COc1ccc2cc(-c3cc(C(=O)NCc4c(C)cc(C)[nH]c4=O)c4ccc(=O)[nH]c4c3)ccc2c1,20.6
6,Cc1ccc(-c2cc(C(=O)NCc3c(C)cc(C)[nH]c3=O)c3ccc(=O)[nH]c3c2)cc1,27.6
7,Cc1cc(C)c(CNC(=O)c2cc(-c3ccccc3)cc3[nH]c(=O)ccc23)c(=O)[nH]1,19.6

# Test system: HeLa
# Assay: Inhibition of colony formation in human HeLa cells assessed as clone formation rate relative to control
# Assay type: functional
# Set-up: scale not given: the % may be the effect or the level left
# Details: not given
row,SMILES,Activity [%]
1,Cc1cc(C)c(CNC(=O)c2cc(-c3ccc(Br)cc3)cc3[nH]c(=O)ccc23)c(=O)[nH]1,45
2,COc1cc(-c2cc(C(=O)NCc3c(C)cc(C)[nH]c3=O)c3ccc(=O)[nH]c3c2)ccc1F,39

# Test system: A549
# Assay: Induction of apoptosis in human A549 cells assessed as late apoptotic cells incubated for 24 hrs by Annexin V/PI staining based flow cytometry analysis (reference value: 5.03 %)
# Assay type: functional
# Details: not given
row,SMILES,Activity [%]
1,Cc1cc(C)c(CNC(=O)c2cc(-c3ccc(Br)cc3)cc3[nH]c(=O)ccc23)c(=O)[nH]1,51.8
2,COc1cc(-c2cc(C(=O)NCc3c(C)cc(C)[nH]c3=O)c3ccc(=O)[nH]c3c2)ccc1F,17.3

# Target: T1, Histone-lysine N-methyltransferase EZH2
# Assay: Inhibition of EZH2 in human A549 cells assessed as reduction in H3K27me3 expression level incubated for 72 hrs by Western blotting analysis
# Assay type: cell-based
# Details: dose 1-3 µM
# Target sequence in this assay (Q15910 whole entry, looked up): as the sequence (Q15910 whole entry) above
row,SMILES,inhibition
1,Cc1cc(C)c(CNC(=O)c2cc(-c3ccc(Br)cc3)cc3[nH]c(=O)ccc23)c(=O)[nH]1,Dose-Dependent Effect

# Test system: HeLa
# Assay: Inhibition of cell migration in human HeLa cells assessed as reduction of cell scratch width incubated for 24 hrs
# Assay type: functional, cell-based
# Details: not given
row,SMILES,inhibition
1,Cc1cc(C)c(CNC(=O)c2cc(-c3ccc(Br)cc3)cc3[nH]c(=O)ccc23)c(=O)[nH]1,Active
2,COc1cc(-c2cc(C(=O)NCc3c(C)cc(C)[nH]c3=O)c3ccc(=O)[nH]c3c2)ccc1F,Active

# Test system: A549
# Assay: Induction of apoptosis in human A549 cells assessed as necrotic cells incubated for 24 hrs by Annexin V/PI staining based flow cytometry analysis (reference value: 1.35 %)
# Assay type: functional
# Details: not given
row,SMILES,Activity [%]
1,Cc1cc(C)c(CNC(=O)c2cc(-c3ccc(Br)cc3)cc3[nH]c(=O)ccc23)c(=O)[nH]1,1.07
2,COc1cc(-c2cc(C(=O)NCc3c(C)cc(C)[nH]c3=O)c3ccc(=O)[nH]c3c2)ccc1F,0.8

# Test system: HeLa
# Assay: Antiproliferative activity against human HeLa cells by MTT assay
# Assay type: functional, cell-based
# Details: not given
row,SMILES,IC50 [µM]
1,Cc1cc(C)c(CNC(=O)c2cc(-c3ccc4ncccc4c3)cc3[nH]c(=O)ccc23)c(=O)[nH]1,> 50
2,Cc1cc(C)c(CNC(=O)c2cc(-c3ccc(Br)cc3)cc3[nH]c(=O)ccc23)c(=O)[nH]1,25.3
3,Cc1cc(C)c(CNC(=O)c2cc(-c3ccc(Oc4ccccc4)cc3)cc3[nH]c(=O)ccc23)c(=O)[nH]1,46.3
4,COc1cc(-c2cc(C(=O)NCc3c(C)cc(C)[nH]c3=O)c3ccc(=O)[nH]c3c2)ccc1F,18.4
5,COc1ccc2cc(-c3cc(C(=O)NCc4c(C)cc(C)[nH]c4=O)c4ccc(=O)[nH]c4c3)ccc2c1,> 50
6,Cc1ccc(-c2cc(C(=O)NCc3c(C)cc(C)[nH]c3=O)c3ccc(=O)[nH]c3c2)cc1,33.8
7,Cc1cc(C)c(CNC(=O)c2cc(-c3ccccc3)cc3[nH]c(=O)ccc23)c(=O)[nH]1,43.2

# Test system: HeLa
# Assay: Induction of apoptosis in human HeLa cells assessed as nectrotic cells by Annexin V/PI staining based flow cytometry analysis (reference value: 0.782 %)
# Assay type: functional
# Details: not given
row,SMILES,Activity [%]
1,COc1cc(-c2cc(C(=O)NCc3c(C)cc(C)[nH]c3=O)c3ccc(=O)[nH]c3c2)ccc1F,4.32

# Test system: A549
# Assay: Induction of apoptosis in human A549 cells assessed as early apoptotic cells incubated for 24 hrs by Annexin V/PI staining based flow cytometry analysis (reference value: 1.17 %)
# Assay type: functional
# Details: not given
row,SMILES,Activity [%]
1,Cc1cc(C)c(CNC(=O)c2cc(-c3ccc(Br)cc3)cc3[nH]c(=O)ccc23)c(=O)[nH]1,12.4
2,COc1cc(-c2cc(C(=O)NCc3c(C)cc(C)[nH]c3=O)c3ccc(=O)[nH]c3c2)ccc1F,3.63

# Test system: A549
# Assay: Induction of apoptosis in human A549 cells assessed as viable cells incubated for 24 hrs by Annexin V/PI staining based flow cytometry analysis (reference value: 91.6 %)
# Assay type: functional
# Details: not given
row,SMILES,Activity [%]
1,Cc1cc(C)c(CNC(=O)c2cc(-c3ccc(Br)cc3)cc3[nH]c(=O)ccc23)c(=O)[nH]1,34.7
2,COc1cc(-c2cc(C(=O)NCc3c(C)cc(C)[nH]c3=O)c3ccc(=O)[nH]c3c2)ccc1F,78.2

# Test system: HeLa
# Assay: Induction of apoptosis in human HeLa cells assessed as early apoptotic cells by Annexin V/PI staining based flow cytometry analysis (reference value: 1.72 %)
# Assay type: functional
# Details: not given
row,SMILES,Activity [%]
1,Cc1cc(C)c(CNC(=O)c2cc(-c3ccc(Br)cc3)cc3[nH]c(=O)ccc23)c(=O)[nH]1,4.72
2,COc1cc(-c2cc(C(=O)NCc3c(C)cc(C)[nH]c3=O)c3ccc(=O)[nH]c3c2)ccc1F,5.85

# Target: Histone-lysine N-methyltransferase EZH2 (Homo sapiens, UniProt Q15910, Y641F)
# Assay: Inhibition of EZH2 Y641F mutant (unknown origin)
# Details: not given
# Sequence of Histone-lysine N-methyltransferase EZH2 (Homo sapiens, UniProt Q15910, Y641F) (Q15910 whole entry Y641F): as the sequence (Q15910 whole entry) above, with Y641F counted along it
row,SMILES,IC50 [µM]
1,Cc1cc(C)c(CNC(=O)c2cc(-c3ccc4ncccc4c3)cc3[nH]c(=O)ccc23)c(=O)[nH]1,0.0117
2,Cc1cc(C)c(CNC(=O)c2cc(-c3ccc(Br)cc3)cc3[nH]c(=O)ccc23)c(=O)[nH]1,0.00568
3,Cc1cc(C)c(CNC(=O)c2cc(-c3ccc(Oc4ccccc4)cc3)cc3[nH]c(=O)ccc23)c(=O)[nH]1,0.00941
4,COc1cc(-c2cc(C(=O)NCc3c(C)cc(C)[nH]c3=O)c3ccc(=O)[nH]c3c2)ccc1F,0.00543
5,COc1ccc2cc(-c3cc(C(=O)NCc4c(C)cc(C)[nH]c4=O)c4ccc(=O)[nH]c4c3)ccc2c1,0.00748
6,Cc1ccc(-c2cc(C(=O)NCc3c(C)cc(C)[nH]c3=O)c3ccc(=O)[nH]c3c2)cc1,0.00776
7,Cc1cc(C)c(CNC(=O)c2cc(-c3ccccc3)cc3[nH]c(=O)ccc23)c(=O)[nH]1,0.0103

# Test system: A549
# Assay: Inhibition of colony formation in human A549 cells assessed as clone formation rate relative to control
# Assay type: functional
# Set-up: concentration or dose not given beside the values
# Details: not given
row,SMILES,Activity [%]
1,Cc1cc(C)c(CNC(=O)c2cc(-c3ccc(Br)cc3)cc3[nH]c(=O)ccc23)c(=O)[nH]1,40
2,COc1cc(-c2cc(C(=O)NCc3c(C)cc(C)[nH]c3=O)c3ccc(=O)[nH]c3c2)ccc1F,46

# Target: T1, Histone-lysine N-methyltransferase EZH2
# Assay: Inhibition of EZH2 in human A549 cells assessed as reduction in H3K27me3 expression level at 3 uM incubated for 72 hrs by Western blotting analysis
# Assay type: cell-based
# Details: not given
# Target sequence in this assay (Q15910 whole entry, looked up): as the sequence (Q15910 whole entry) above
row,SMILES,inhibition
1,COc1cc(-c2cc(C(=O)NCc3c(C)cc(C)[nH]c3=O)c3ccc(=O)[nH]c3c2)ccc1F,Active

# Test system: HeLa
# Assay: Induction of apoptosis in human HeLa cells assessed as viable cells by Annexin V/PI staining based flow cytometry analysis (reference value: 91.0 %)
# Assay type: functional
# Details: not given
row,SMILES,Activity [%]
1,COc1cc(-c2cc(C(=O)NCc3c(C)cc(C)[nH]c3=O)c3ccc(=O)[nH]c3c2)ccc1F,58.5

# Test system: HeLa
# Assay: Induction of apoptosis in human HeLa cells assessed as late apoptotic cells by Annexin V/PI staining based flow cytometry analysis (reference value: 6.46 %)
# Assay type: functional
# Details: not given
row,SMILES,Activity [%]
1,Cc1cc(C)c(CNC(=O)c2cc(-c3ccc(Br)cc3)cc3[nH]c(=O)ccc23)c(=O)[nH]1,16.5
2,COc1cc(-c2cc(C(=O)NCc3c(C)cc(C)[nH]c3=O)c3ccc(=O)[nH]c3c2)ccc1F,33.3
